Reference: PubChem BioAssay (NCI)
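Protocol summary: plate cells (96-well), add compound at 5 concentrations, incubate 48 h, interpolate endpoints linearly. At the GI50, growth is halved. TGI marks complete inhibition of growth.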

Experiments:
Test in all cases: NCI-60 cell line screen, 48 h
[1] = tested on: 786-0 renal
[2] = tested on: A498 renal
[3] = tested on: A549 NSCLC
[4] = tested on: ACHN renal
[5] = tested on: BT-549 breast
[6] = tested on: CAKI-1 renal
[7] = tested on: CCRF-CEM leukemia
[8] = tested on: COLO 205 colon
[9] = tested on: DU-145 prostate
[10] = tested on: EKVX NSCLC
[11] = tested on: HCT-116 colon
[12] = tested on: HCT-15 colon
[13] = tested on: HL-60(TB) leukemia
[14] = tested on: HOP-62 NSCLC
[15] = tested on: HOP-92 NSCLC
[16] = tested on: HS 578T breast
[17] = tested on: HT29 colon
[18] = tested on: K-562 leukemia
[19] = tested on: KM12 colon
[20] = tested on: LOX IMVI melanoma
[21] = tested on: M14 melanoma
[22] = tested on: MALME-3M melanoma
[23] = tested on: MCF7 breast
[24] = tested on: MDA-MB-435
[25] = tested on: NCI-H226 lung

SMILES: CC[N+](CC)=c1cc2oc3cc(N(C)C)ccc3nc-2cc1C
- GI50 [1]: 5.12 µM
- TGI [1]: > 100 µM
- GI50 [2]: 1540 nM
- TGI [2]: 30.8 µM
- GI50 [3]: 1710 nM
- TGI [3]: 16 µM
- GI50 [4]: 10.8 µM
- TGI [4]: > 100 µM
- GI50 [5]: 932 nM
- TGI [5]: 13.6 µM
- GI50 [6]: 3.07 µM
- TGI [6]: 19.6 µM
- GI50 [7]: 2300 nM
- TGI [7]: 65.4 µM
- GI50 [8]: 660 nM
- TGI [8]: 2270 nM
- GI50 [9]: 4.36 µM
- TGI [9]: 33.4 µM
- GI50 [10]: 1530 nM
- TGI [10]: 17.3 µM
- GI50 [11]: 563 nM
- TGI [11]: 4.85 µM
- GI50 [12]: 2750 nM
- TGI [12]: > 100 µM
- GI50 [13]: 313 nM
- TGI [13]: 2830 nM
- GI50 [14]: 1980 nM
- TGI [14]: 37.1 µM
- GI50 [15]: 1150 nM
- TGI [15]: 8.19 µM
- GI50 [16]: 10.5 µM
- TGI [16]: 64.2 µM
- GI50 [17]: 3.47 µM
- TGI [17]: > 100 µM
- GI50 [18]: 1780 nM
- TGI [18]: > 100 µM
- GI50 [19]: 975 nM
- TGI [19]: 14.7 µM
- GI50 [20]: 1710 nM
- TGI [20]: 12.3 µM
- GI50 [21]: 471 nM
- TGI [21]: 2650 nM
- GI50 [22]: 1530 nM
- TGI [22]: 5.33 µM
- GI50 [23]: 352 nM
- TGI [23]: 2480 nM
- GI50 [24]: 2150 nM
- TGI [24]: 17.7 µM
- GI50 [25]: 6.76 µM
- TGI [25]: 47.2 µM
